Patent publication US20230339866A1, “Quinazoline compounds and the use thereof in the treatment of cancer” (TROBIO THERAPEUTICS PTY LTD, priority 2020, published 2023)

Tests used:
A549 (NSCLC) = experiment: Anti-proliferative activity (Cell-Titre luminescence) against A549 non-small cell lung cancer cells; format: cell-based; conditions: Homo sapiens, A549, 72 h, 72 h exposure, Cell-Titre luminescent reagent
Protocol: (§1) The ability of compounds of the invention to inhibit the proliferation of cancer cells representative of non-small cell lung cancer and ovarian cancer (Table 2), pancreatic cancer, colorectal cancer and prostate cancer (Table 3) was assessed. Briefly, a predetermined number of cells as calculated from cell growth assays for each of the cell lines employed were seeded into their respective culture medium (using ATCC culture parameters—http://www.atcc.org) and cultured for 24 h at 37° C. and 5% CO2 in 96-well culture plates. Once attached, each cell line was then exposed to various concentrations of each respective analogue (30, 10, 3, 1, 0.3 and 0.1 μM), cultured for a further 72 h and exposed to Cell-Titre luminescent reagent (100 μL/well) for a further 30 min. Luminescence was captured using an EnVision multilabel reader and the data for each analogue concentration compared against no treatment control. Cell viability was normalised to control (vehicle alone) and dose response curves, and half maximal effective concentration (EC50) values were determined using Graph Pad Prism 6 (nonlinear regression sigmoidal dose-response variable slope).

A2780 (ovarian) = experiment: Anti-proliferative activity (Cell-Titre luminescence) against A2780 ovarian cancer cells; format: cell-based; conditions: Homo sapiens, A2780, 72 h, 72 h exposure, Cell-Titre luminescent reagent
Protocol: as §1

SMILES | IC50 (A549 (NSCLC)) [µM] | IC50 (A2780 (ovarian)) [µM]
CC(C)C(CNc1nc(-c2ccoc2)nc2ccccc12)N1CCN(C)CC1 (stereo not shown) [Compound 7, 2-(furan-3-yl)-N-(3-methyl-2-(4-methylpiperazin-1-yl)butyl)quinazolin-4-amine] | 10.2 | 10.8
CC(C)C(CNc1nc(-n2cccc2)nc2ccccc12)N1CCN(C)CC1 (stereo not shown) [Compound 9, N-(3-methyl-2-(4-methylpiperazin-1-yl)butyl)-2-(1H-pyrrol-1-yl)quinazolin-4-amine] | 4.94 | 5.79
OCCNc1nc(Nc2cccc(C(F)(F)F)c2)nc2ccccc12 [Compound 27, 2-((2-((3-(trifluoromethyl)phenyl)amino)quinazolin-4-yl)amino)ethan-1-ol] | 2.84 | 6.74
Cc1ccccc1CCNc1nc(NCCN2CCN(C)CC2)c2ccccc2n1 [Compound 122, N^2-(2-methylphenethyl)-N^4-(2-(4-methylpiperazin-1-yl)ethyl)quinazoline-2,4-diamine] | 3.17 | 2.68
c1csc(-c2nc(NCCc3c[nH]cn3)c3ccccc3n2)c1 [Compound 104, N-(2-(1H-imidazol-4-yl)ethyl)-2-(thiophen-2-yl)quinazolin-4-amine] | > 30 | > 30
CC(C)C(CNc1nc(N2CCCC2)nc2ccccc12)N1CCN(C)CC1 (stereo not shown) [Compound 8, N-(3-methyl-2-(4-methylpiperazin-1-yl)butyl)-2-(pyrrolidin-1-yl)quinazolin-4-amine] | > 30 | > 30
CN(C)CCCNc1nc(-n2cccc2)nc2ccccc12 [Compound 103, N^1-(2-(1H-pyrrol-1-yl)quinazolin-4-yl)-N^3,N^3-dimethylpropane-1,3-diamine] | 24.1 | 16.5
OCCCNc1nc(NCCc2cccc(F)c2)nc2ccccc12 [Compound 94, 3-((2-((3-fluorophenethyl)amino)quinazolin-4-yl)amino)propan-1-ol] | 5.57 | 4.59
CN1CCN(CCNc2nc(SCCc3cccc(C(F)(F)F)c3)nc3ccccc23)CC1 [Compound 151, N-(2-(4-methylpiperazin-1-yl)ethyl)-2-((3-(trifluoromethyl)phenethyl)thio)quinazolin-4-amine] | 7.41 | 5.81
COCCCNc1nc(NCCc2cccc(C(F)(F)F)c2)nc2ccccc12 [Compound 117, N^4-(3-methoxypropyl)-N^2-(3-(trifluoromethyl)phenethyl)quinazoline-2,4-diamine] | 3.05 | 1.62
CN1CCN(CCNc2nc(NCCc3ccc(N(C)C)cc3)nc3ccccc23)CC1 [Compound 134, N^2-(4-(dimethylamino)phenethyl)-N^4-(2-(4-methylpiperazin-1-yl)ethyl)quinazoline-2,4-diamine] | 8.86 | 2.68
CN1CCN(CCNc2nc(Nc3ccccc3)nc3ccccc23)CC1 [Compound 40, N^4-(2-(4-methylpiperazin-1-yl)ethyl)-N^2-phenylquinazoline-2,4-diamine] | 6.27 | 4.34
CN1CCN(CCNc2nc(-c3cccs3)nc3ccccc23)CC1 [Compound 10, N-(2-(4-methylpiperazin-1-yl)ethyl)-2-(thiophen-2-yl)quinazolin-4-amine] | > 30 | > 30
OCCCNc1nc(-c2ccc[nH]2)nc2ccccc12 [Compound 109, 3-((2-(1H-pyrrol-2-yl)quinazolin-4-yl)amino)propan-1-ol] | 21.1 | 13
COc1cc(CCNc2nc(NCCN3CCN(C)CC3)c3ccccc3n2)cc(OC)c1 [Compound 140, N^2-(3,5-dimethoxyphenethyl)-N^4-(2-(4-methylpiperazin-1-yl)ethyl)quinazoline-2,4-diamine] | 13.2 | 7.26
OCCCNc1nc(-c2cc[nH]c2)nc2ccccc12 [Compound 110, 3-((2-(1H-pyrrol-3-yl)quinazolin-4-yl)amino)propan-1-ol] | 9.19 | 4.87
CN1CCN(CCNc2nc(-c3ccco3)nc3ccccc23)CC1 [Compound 14, 2-(furan-2-yl)-N-(2-(4-methylpiperazin-1-yl)ethyl)quinazolin-4-amine] | > 30 | > 30
CN1CCN(CCNc2nc(NCCc3ccc(C(F)(F)F)cc3)nc3ccccc23)CC1 [Compound 52, N^4-(2-(4-methylpiperazin-1-yl)ethyl)-N^2-(4-(trifluoromethyl)phenethyl)quinazoline-2,4-diamine] | 5.6 | 1.19
CN1CCN(CCNc2nc(NCc3ccccc3)nc3ccccc23)CC1 [Compound 45, N^2-benzyl-N^4-(2-(4-methylpiperazin-1-yl)ethyl)quinazoline-2,4-diamine] | 18.4 | 8.55
CC(C)C(CNc1nc(-c2ccsc2)nc2ccccc12)N1CCN(C)CC1 (stereo not shown) [Compound 1, N-(3-methyl-2-(4-methylpiperazin-1-yl)butyl)-2-(thiophen-3-yl)quinazolin-4-amine] | 8.06 | 8.59
CN1CCN(CCNc2nc(NCCc3ccccc3F)nc3ccccc23)CC1 [Compound 121, N^2-(2-fluorophenethyl)-N^4-(2-(4-methylpiperazin-1-yl)ethyl)quinazoline-2,4-diamine] | 4 | 2.38
OCCCNc1nc(-n2cccc2)nc2ccccc12 [Compound 111, 3-((2-(1H-pyrrol-1-yl)quinazolin-4-yl)amino)propan-1-ol] | > 30 | > 30
CN(C)CCNc1nc(-n2cccc2)nc2ccccc12 [Compound 99, N^1-(2-(1H-pyrrol-1-yl)quinazolin-4-yl)-N^2,N^2-dimethylethane-1,2-diamine] | 22.2 | 10.3
COc1cccc(Nc2nc(NCCO)c3ccccc3n2)c1 [Compound 29, 2-((2-((3-methoxyphenyl)amino)quinazolin-4-yl)amino)ethan-1-ol] | 9.21 | 6.91
CN1CCN(CCNc2nc(OCCc3cccc(C(F)(F)F)c3)nc3ccccc23)CC1 [Compound 150, N-(2-(4-methylpiperazin-1-yl)ethyl)-2-(3-(trifluoromethyl)phenethoxy)quinazolin-4-amine] | 16.5 | 12.2
CN1CCN(CCNc2nc(NCCc3cccnc3)nc3ccccc23)CC1 [Compound 145, N^4-(2-(4-methylpiperazin-1-yl)ethyl)-N^2-(2-(pyridin-3-yl)ethyl)quinazoline-2,4-diamine] | > 30 | 10.9
CN1CCN(CCNc2nc(-n3cccc3)nc3ccccc23)CC1 [Compound 17, N-(2-(4-methylpiperazin-1-yl)ethyl)-2-(1H-pyrrol-1-yl)quinazolin-4-amine] | > 30 | 22.7
CN1CCN(CCNc2nc(NCCc3ccc(Cl)c(Cl)c3)nc3ccccc23)CC1 [Compound 135, N^2-(3,4-dichlorophenethyl)-N^4-(2-(4-methylpiperazin-1-yl)ethyl)quinazoline-2,4-diamine] | 3.19 | 0.66
CN(C)CCNc1nc(NCCc2cccc(F)c2)nc2ccccc12 [Compound 67, N^4-(2-(dimethylamino)ethyl)-N^2-(3-fluorophenethyl)quinazoline-2,4-diamine] | 5.9 | 7.59
